Data from patent US20160158200A1, “Combinations of Hepatitis C Virus Inhibitors” (priority 2013, published 2016).

Legend:
[1] = test system: HCV genotype 1a Y93H variant with tyrosine 93 changed to histidine in the NS5A protein; test: microbe, parasite or virus in culture; format: cell-based; settings: genotype 1a Y93H replicon; test compound titrated with compound N47 fixed at 200 nM versus singly
Procedure, shortened: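 In an HCV genotype 1a replicon cell-based assay carrying the NS5A Y93H substitution, BMS-790052 was tested alone and in combination with a fixed amount of a second test compound. The combinations were examined for synergistic activity.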

[2] = test system: HCV genotype 1a L31V variant with leucine 31 changed to valine in the NS5A protein; test: microbe, parasite or virus in culture; format: cell-based; settings: genotype 1a L31V replicon; test compound titrated with compound N47 fixed at 200 nM versus singly

| SMILES | Fold-Synergistic G-1a (Y93H) [1] | Fold-Synergistic G-1a (L31V) [2] |
| --- | --- | --- |
| O=C(Cc1ccccc1)N1CCC[C@H]1c1nc2cc(CCc3ccc4nc([C@@H]5CCCN5C(=O)Cc5ccccc5)[nH]c4c3)ccc2[nH]1 | <10 fold | <10 fold |
| C[C@H](NC(=O)OCc1ccccc1)c1nc2ccc(CCc3ccc4nc([C@H](C)NC(=O)OCc5ccccc5)[nH]c4c3)cc2[nH]1 | <10 fold | <10 fold |
| O=C(Cc1ccccc1)N1CCC[C@H]1c1nc2cc(-c3ccc4nc([C@@H]5CCCN5C(=O)Cc5ccccc5)[nH]c4c3)ccc2[nH]1 | <10 fold | <10 fold |
| COC(=O)N[C@H](C(=O)N1[C@@H]2C[C@@H]2C[C@H]1c1nc(Cl)c(-c2ccc(-c3ccc(-c4[nH]c([C@@H]5C[C@H]6C[C@H]6N5C(=O)[C@@H](NC(=O)OC)C(C)C)nc4Cl)cc3)cc2)[nH]1)C(C)C | <10 fold | >10 fold |
| COC(=O)N[C@H](C(=O)N1CCC[C@H]1c1ncc(-c2ccc3oc(-c4ccc5nc([C@@H]6CCCN6C(=O)[C@@H](NC(=O)OC)C(C)C)[nH]c5c4)nc3c2)[nH]1)C(C)C | >100 fold | >100 fold |
| COC(=O)N[C@H](C(=O)N1[C@@H]2C[C@@H]2C[C@H]1c1nc2cc(CCc3ccc4c(ccc5[nH]c([C@@H]6C[C@H]7C[C@H]7N6C(=O)[C@@H](NC(=O)OC)C6CCOCC6)nc54)c3)ccc2[nH]1)C(C)C | >100 fold | >10 fold |
| COC(=O)N[C@H](C(=O)N1C2CC2C[C@H]1c1nc2ccc3cc(C#Cc4ccc5c(ccc6nc([C@@H]7C[C@H]8C[C@H]8N7C(=O)[C@@H](NC(=O)OC)C(C)C)[nH]c65)c4)ccc3c2[nH]1)C(C)C (stereo partly shown) | >100 fold | <10 fold |
| COC(=O)N[C@H](C(=O)N1CCC[C@H]1c1ncc(C#Cc2ccc3cc(C#Cc4cnc([C@@H]5CCCN5C(=O)[C@@H](NC(=O)OC)C(C)C)[nH]4)ccc3c2)[nH]1)C(C)C | <10 fold | >10 fold |
| COC(=O)N[C@H](C(=O)N1CCC[C@H]1c1nc(-c2ccc(C#Cc3ccc(-c4ccc(-c5c[nH]c([C@@H]6CCCN6C(=O)[C@@H](NC(=O)OC)C(C)C)n5)cc4)cc3)cc2)c[nH]1)C(C)C | <10 fold | <10 fold |
| COC(=O)N[C@H](C(=O)N1[C@@H]2C[C@@H]2C[C@H]1c1ncc(-c2ccc(C#Cc3ccc4c(ccc5[nH]c([C@@H]6C[C@H]7C[C@H]7N6C(=O)[C@@H](NC(=O)OC)C(C)C)nc54)c3)cc2)[nH]1)C(C)C | >10 fold | <10 fold |
| COC(=O)N[C@H](C(=O)N1[C@@H]2C[C@@H]2C[C@H]1c1nc2ccc3cc(C#CC#Cc4ccc5c(ccc6nc([C@@H]7C[C@H]8C[C@H]8N7C(=O)[C@@H](NC(=O)OC)C(C)C)[nH]c65)c4)ccc3c2[nH]1)C(C)C | >10 fold | >10 fold |
| COC(=O)N[C@H](C(=O)N1CCC[C@H]1c1ncc(-c2ccc(-c3ccc4cc(-c5cnc([C@@H]6CCCN6C(=O)[C@@H](NC(=O)OC)C6CCOCC6)[nH]5)ccc4c3)cc2)[nH]1)C1CCOCC1 | >10 fold | <10 fold |
| COC(=O)N[C@H](C(=O)N1[C@@H]2C[C@@H]2C[C@H]1c1ncc(-c2ccc(-c3ccc4cc(-c5cnc([C@@H]6C[C@H]7C[C@H]7N6C(=O)[C@@H](NC(=O)OC)C(C)C)[nH]5)ccc4c3)cc2)[nH]1)C(C)C | >10 fold | <10 fold |
| COC(=O)N[C@H](C(=O)N1CCC[C@H]1c1nc2ccc(-c3ccc4nc(-c5ccc6nc([C@@H]7CCCN7C(=O)[C@@H](NC(=O)OC)C(C)C)[nH]c6c5)ccc4c3)cc2[nH]1)C(C)C | >10 fold | >10 fold |
| COC(=O)N[C@H](C(=O)N1CCC[C@H]1c1nc2ccc(Oc3ccc(-c4ccc5nc([C@@H]6CCCN6C(=O)[C@@H](NC(=O)OC)C(C)C)[nH]c5c4)cc3)cc2[nH]1)C(C)C | <10 fold | <10 fold |
| COC(=O)N[C@H](C(=O)N1[C@@H]2C[C@@H]2C[C@H]1c1ncc(-c2ccc3cc(-c4ccc5[nH]c([C@@H]6C[C@H]7C[C@H]7N6C(=O)[C@@H](NC(=O)OC)C(C)C)nc5c4)ccc3c2)[nH]1)C(C)C | >100 fold | >100 fold |
| CCC1(c2ccc(NC(=O)[C@@H]3C[C@H]4C[C@H]4N3C(=O)[C@@H](NC(=O)OC)C(C)C)cc2)CC2C3CC4CC(c5ccc(NC(=O)[C@@H]6C[C@H]7C[C@H]7N6C(=O)[C@@H](NC(=O)OC)C(C)C)cc5)(C3)CC2C4C1 (stereo partly shown) | <10 fold | <10 fold |
| COC(=O)N[C@H](C(=O)N1[C@@H]2C[C@@H]2C[C@H]1c1ncc(-c2cccc(-c3ccc4cc(-c5cnc([C@H]6C[C@@H]7C[C@@H]7N6C(=O)[C@@H](NC(=O)OC)C(C)C)[nH]5)ccc4c3)c2)[nH]1)C(C)C | >10 fold | <10 fold |
| COC(=O)N[C@H](C(=O)N1CCC[C@H]1c1ncc(-c2cccc(C#Cc3cccc(-c4cnc([C@@H]5CCCN5C(=O)[C@@H](NC(=O)OC)C(C)C)[nH]4)c3)c2)[nH]1)C(C)C | >10 fold | >10 fold |
| COC(=O)N[C@H](C(=O)N1[C@@H]2C[C@@H]2C[C@H]1c1ncc(-c2ccc([C@@H]3C[C@H]3c3ccc(-c4cnc([C@@H]5C[C@H]6C[C@H]6N5C(=O)[C@@H](NC(=O)OC)C(C)C)[nH]4)cc3)cc2)[nH]1)C(C)C | >10 fold | >10 fold |
| COC(=O)N[C@H](C(=O)N1[C@@H]2C[C@@H]2C[C@H]1c1ncc(-c2ccc([C@H]3C[C@@H]3c3ccc(-c4cnc([C@@H]5C[C@H]6C[C@H]6N5C(=O)[C@@H](NC(=O)OC)C(C)C)[nH]4)cc3)cc2)[nH]1)C(C)C | <10 fold | >10 fold |
| COC(=O)N[C@H](C(=O)N1[C@H](c2ncc(-c3ccc(-c4ccc(-c5cnc([C@@H]6C[C@@H](C)[C@H](C)N6C(=O)[C@@H](NC(=O)OC)C(C)C)[nH]5)cc4)cc3)[nH]2)C[C@@H](C)[C@@H]1C)C(C)C | >100 fold | >100 fold |
| COC(=O)N[C@H](C(=O)N1[C@H](c2ncc(-c3ccc(-c4ccc(-c5cnc([C@@H]6C[C@H](C)[C@H](C)N6C(=O)[C@@H](NC(=O)OC)C(C)C)[nH]5)cc4)cc3)[nH]2)C[C@H](C)[C@@H]1C)C(C)C | >100 fold | >100 fold |
| COC(=O)N[C@H](C(=O)N1[C@@H]2C[C@@H]2C[C@H]1c1ncc(-c2ccc(-c3ccc(-c4ccc(-c5cnc([C@@H]6C[C@H]7C[C@H]7N6C(=O)[C@@H](NC(=O)OC)C(C)C)[nH]5)cc4)c4[nH]ccc34)cc2)[nH]1)C(C)C | >10 fold | >10 fold |
| COC(=O)N[C@H](C(=O)N1[C@@H](C)CC[C@H]1c1ncc(-c2ccc(-c3ccc4cc(-c5cnc([C@@H]6CC[C@H](C)N6C(=O)[C@@H](NC(=O)OC)C(C)C)[nH]5)ccc4c3)cc2)[nH]1)C(C)C | >100 fold | <10 fold |
| COC(=O)N[C@H](C(=O)N1[C@@H](C)CC[C@H]1c1ncc(-c2ccc(-c3ccc4cc(-c5cnc([C@@H]6CC[C@H](C)N6C(=O)[C@@H](NC(=O)OC)C6CCOCC6)[nH]5)ccc4c3)cc2)[nH]1)C1CCOCC1 | >10 fold | <10 fold |
| COC(=O)N[C@H](C(=O)N1CCOC[C@H]1c1ncc(-c2ccc(-c3ccc(-c4cnc([C@@H]5COCCN5C(=O)[C@@H](NC(=O)OC)C(C)C)[nH]4)cc3)cc2)[nH]1)C(C)C | >100 fold | >100 fold |
| COC(=O)N[C@H](C(=O)N1[C@H]2C[C@@]2(C)C[C@H]1c1ncc(-c2ccc(-c3ccc(-c4cnc([C@@H]5C[C@]6(C)C[C@@H]6N5C(=O)[C@@H](NC(=O)OC)C(C)C)[nH]4)cc3)cc2)[nH]1)C(C)C | >100 fold | >100 fold |
| COC(=O)N[C@H](C(=O)N1[C@@H]2C[C@@H]2C[C@H]1c1ncc(C#Cc2ccc3cc(-c4cnc([C@@H]5C[C@H]6C[C@H]6N5C(=O)[C@@H](NC(=O)OC)C(C)C)[nH]4)ccc3c2)[nH]1)C(C)C | >100 fold | >100 fold |
